# Data taken from patent US8889156B2, “Calcium-binding agents induce hair growth and/or nail growth” (priority 2009, dated 2014).
# Key:
# [1] = Nucleation of hydroxyapatite on tooth dentin (SBFn/SBFg, SEM); design: species or system human; conditions: nondemineralized dentin, 12.5 μM peptide
# Description: To determine whether applying DSS to various preparations of tissue promoted HA nucleation, that could ultimately lead to tissue remineralization, sagittally sectioned adult human teeth (obtained after extraction during normal clinical practice) were polished using a Streurs grinding wheel, and prepared for nucleation experiments. Half of the sections were demineralized with 35% phosphoric acid for 15 minutes, then rinsed thoroughly with deionized water. The other half were left untreated. All samples were then sonicated for five minutes to remove excess debris left from cutting and grinding and/or demineralization. Samples were treated with 12.5 μM 8DSS dissolved in 50 mM HEPES buffer solution (pH 7.0), buffer solution only, or left untreated. Samples were then immersed into a simulated body fluid (SBFn), meant to accelerate nucleation of hydroxyapatite (HA) crystals, for 4 hours. Following the nucleation step, samples were immersed in a magnesium and bicarbonate free solution (SBFg) in order to allow the nucleated HA crystals to grow. […] Both solutions were adjusted to pH 6.8. Crystals were grown in order to amplify the nucleated crystals for easy visualization by SEM.
# [2] = HA binding assay (pulldown of fluorescein-labeled peptides, Langmuir isotherm fit); conditions: fit of Langmuir equation
# Description: Fluorescein-labeled DSS-containing peptides of various lengths were subjected to pulldown assays as follows: Samples containing varying concentrations of fluorescein-labeled peptide (0-100 μM) and a fixed amount (0.3 mg) of HA nanocrystals with a specific surface area of 100 m^2/g (Berkeley Advanced Biomaterials, Berkeley, Calif.) were prepared. Measurements were taken of the absorbance of the labeled peptide at 488 nm (the peak absorbance of the fluorescein label) before and after exposure to the HA. The amount of peptide bound was calculated by comparing the ratio of the final (Af) and initial (Ai) absorbances to the initial concentration (C0) [Cbound=(Af/Ai)C0]. Plots were generated of the amount of peptide bound per meter squared of HA surface area vs. concentration of unbound peptide at equilibrium. The resulting isotherms were fit to the Langmuir isotherm, x/m=(KANmaxCeq)/(1+KACeq), where x/m represents the molar amount of peptide bound per unit of HA surface area, KA is the affinity constant of the peptide for the HA surface (L/Mol), Nmax is the maximum surface concentration (mol/m^2), and Ceq is the molar concentration of unbound peptide at equilibrium (Calis et al. (1995) Pharm Res., 12: 1072-1076).
# In order to quantitatively assess the strength of the DSS-HA interaction as well as to determine the roles of peptide length and sequence on binding, fluorescein-labeled, DSS-containing peptides of various lengths were subjected to pulldown assays as described in “Materials and Methods.”
# The experimental data were fit to the Langmuir isotherm, which describes the binding of molecules to surfaces with the conditions that (1) all binding sites have the same affinity for the peptide and (2) the peptide will form a monolayer on the surface but cannot accumulate to higher levels (Atkins (1994) Physical chemistry. Freeman, New York). The excellent fit of the Langmuir isotherm to the experimental data validates these conditions, and the constants obtained from this analysis were used for comparisons between peptides. As shown in FIG. 7A and summarized in Table 6, both the binding affinity (KA) and the monolayer concentration (NMax) of the various peptides increased with the number of DSS repeats per peptide. Additionally, several variant peptides were tested (FIGS. 7B, 7C, Table 6): a peptide containing a longer side chain at the first position (4ESS (SEQ ID NO:34)), peptides containing a more sterically hindered hydroxyl group at the second and third positions (4DTT (SEQ ID NO:36), 4NTT (SEQ ID NO:38), 4ETT (SEQ ID NO:37)), peptides lacking a charged group at the first position (4NSS (SEQ ID NO:35), 8ASS (SEQ ID NO:26)), and peptides lacking hydroxyl groups at the second and third positions (DAA-8 (SEQ ID NO:40), 8NAA (SEQ ID NO:41)).
substance,measurement,setting,value
DSS DSS DSSDSS DSS DSS DSS DSS (DSSDSSDSSDSSDSSDSSDSSDSS; synthetic calcium-binding peptide 8DSS),crystal growth (nucleation) on dentin,[1],the most significant growth
same,Nmax (maximum monolayer surface concentration),[2],8.2 × 10^−8 ± 6 × 10^−9 mol/m^2
same,KA (binding affinity for HA),"[2]; fluorescein-labeled peptide 0-100 μM, 0.3 mg HA nanocrystals","290,000 ± 70,000 M^−1"
